{
  "source": "paper PMC4359714",
  "about": "(Naunyn-Schmiedeberg's Archives of Pharmacology, 2015)",
  "key": {"[1]": {"tested_on": "rats", "assay": "Open field activity", "assay_type": "in vivo, rat", "settings": "100 mg/kg, 2 h before; 60 min; not significantly different from vehicle (14,484 ± 1686 cm)", "experimental": "Rats were habituated in a reversed light cycle room in home cages for at least 1 week and acclimated to the testing room for 1 h prior to dosing. TRPM8 antagonist (10, 30, or 100 mg/kg) or vehicle (5 % Tween 80 in OraPlus®) was injected 2 h before placing an animal in the open-field apparatus. Open-field activity was measured using a system that counts interruptions of a set of photobeams for the course of 60 min (Kinder Scientific, Poway, CA). To begin a session, animals were removed from the home cage and placed individually into an independent Plexiglas box (41 cm L × 41 cm W × 38 cm H) surrounded by a frame consisting of 32 photocells (16Y and 16X) that track the movement of the animal. Photobeam breaks were used as an indication of activity and were measured as the following parameters per minute: basic movements (beam breaks), distance traveled (cm), time spent (s), and number of repetitive beam breaks (i.e., stereotypic movement). Chlordiazepoxide, which consistently elicits a decrease in open field activity, was used as a positive control. Chlordiazepoxide was formulated in saline at 5.6 mg/kg i.p. and dosed 30 min before the start of the open field assay."}, "[2]": {"assay": "Pharmacokinetics in plasma and brain, male Sprague-Dawley rats", "assay_type": "in vivo", "settings": "male Sprague-Dawley rat", "quoted_text": "Plasma pharmacokinetics of each compound in male Sprague-Dawley rats (n = 3 animals per study) were determined after intravenous dosing at 2 mg/kg in 100 % dimethylsulfoxide (DMSO) or after administration of 5 mg/kg by oral gavage with test article formulated in 5 % Tween 80 in OraPlus®. At designated time points, blood was collected via the femoral artery and processed for plasma by centrifugation. Plasma was then transferred into a 96-well container and stored in a freezer maintained at −70 °C. Similar bioanalytical methods were used to determine plasma and brain exposure in animals tested in pharmacodynamic and pain models. Brain samples were homogenized with a 4:1 ratio of water (mL) for every gram of brain tissue. […] Calibration standards were prepared from a 1 mg/mL stock solution of each compound in DMSO with a serial dilution into a blank matrix (plasma or brain homogenate). Liquid chromatography with tandem mass spectrometry was used for the quantitation of each compound in rat plasma and brain. Non-compartmental pharmacokinetic analysis of plasma concentrations was conducted using WinNonlin Enterprise v.5.1.1 (Pharsight Corporation, Mountain View, CA). Brain uptake was calculated as a ratio of concentration in whole brain tissue to that in plasma taken from the same animal at approximately the same time."}, "[3]": {"tested_on": "TRPM8-mediated icilin-induced wet-dog shakes in rats", "assay": "Icilin-induced wet-dog shake (WDS) model", "assay_type": "in vivo, rat", "experimental": "The TRPM8 antagonist (1, 3, or 10 mg/kg) or vehicle control (5 % Tween 80 in OraPlus®) was administered p.o. 90 min prior to administration of icilin (0.5 mg/kg, 1 ml/kg, i.p., 100 % PEG 400). […] Rats were viewed through transparent Plexiglas® observation cylinders that were placed on a custom, opaque, plastic apparatus such that one rat could not view another rat.\nIn vivo IC50 and IC90 estimates using WDS model data were determined by fitting a sigmoidal dose-response curve to individual animal number of WDS versus resulting plasma concentration. Behavioral and electrophysiological data are expressed as mean ± standard error of the mean (S.E.M.). Results were analyzed using one-way analysis of variance (ANOVA) with Dunnett’s multiple-comparisons post-hoc test for significance relative to vehicle. […] Actual gram values are plotted on a logarithmic scale Y-axis of the figures for convenience. Statistical calculations and graphs were made using GraphPad Prism 5.01 (GraphPad Software Inc, San Diego, CA). Percent responders to menthol stimulation in the ex vivo skin-nerve preparation were compared under vehicle and antagonist conditions through the use of Fisher’s exact test. Responses of C fibers to increasing mechanical forces under vehicle or antagonist conditions were compared using a two-way ANOVA with a Bonferonni post-hoc analysis."}, "[4]": {"molecular_target": "T1, rat TRPV1 (Rattus norvegicus, UniProt O35433)", "T1 construct": "expressed in transfected cells; host or cells: CHO, constitutive expression, co-transfected with aequorin", "T1 sequence (O35433 whole entry)": "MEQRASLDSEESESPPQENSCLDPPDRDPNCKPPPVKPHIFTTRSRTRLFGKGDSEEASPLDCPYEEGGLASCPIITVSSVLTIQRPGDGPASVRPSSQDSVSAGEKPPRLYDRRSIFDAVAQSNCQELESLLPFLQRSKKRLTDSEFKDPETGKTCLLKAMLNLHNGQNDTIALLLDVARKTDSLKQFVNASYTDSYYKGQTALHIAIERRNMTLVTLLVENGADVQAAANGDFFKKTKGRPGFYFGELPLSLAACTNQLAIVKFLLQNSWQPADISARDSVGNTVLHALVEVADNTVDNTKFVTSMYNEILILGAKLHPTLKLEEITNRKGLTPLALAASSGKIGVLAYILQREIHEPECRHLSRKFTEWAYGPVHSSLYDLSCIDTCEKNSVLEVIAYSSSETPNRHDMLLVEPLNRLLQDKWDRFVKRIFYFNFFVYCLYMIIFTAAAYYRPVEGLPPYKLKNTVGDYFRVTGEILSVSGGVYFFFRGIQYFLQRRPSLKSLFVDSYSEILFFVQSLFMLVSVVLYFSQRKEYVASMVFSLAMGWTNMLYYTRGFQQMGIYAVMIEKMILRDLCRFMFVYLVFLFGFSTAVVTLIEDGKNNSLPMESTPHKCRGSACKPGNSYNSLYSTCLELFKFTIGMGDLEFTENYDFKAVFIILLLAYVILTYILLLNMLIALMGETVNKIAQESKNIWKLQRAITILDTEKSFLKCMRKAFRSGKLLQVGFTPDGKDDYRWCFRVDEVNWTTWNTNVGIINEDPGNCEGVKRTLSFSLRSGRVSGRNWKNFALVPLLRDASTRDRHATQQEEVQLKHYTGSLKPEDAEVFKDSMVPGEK", "assay": "Luminescence (aequorin) readout of intracellular calcium, CHO cells expressing rat TRPV1, capsaicin activation", "assay_type": "cell-based", "settings": "0.5 uM capsaicin, read-out: rTRPV1 IC50", "text": "(§1) Stable Chinese hamster ovary (CHO) cell lines expressing rat TRPA1, rat TRPM8, rat TRPV3, and human TRPV4 were generated using the tetracycline-inducible T-REx™ expression system from Invitrogen (Carlsbad, CA) and a stable CHO cell line expressing rat TRPV1 was generated using a constitutive expression system (Klionsky et al. [2007]). To enable a luminescence readout based on intracellular increase in calcium (Le Poul et al. [2002]), each cell line was also co-transfected with pcDNA3.1 plasmid containing jelly fish aequorin cDNA. Twenty-four hours before the assay, cells were seeded in 96-well plates and all TRP channel expression, except for TRPV1, was induced with 0.5 ug/mL tetracycline. […] Luminescence was measured by a CCD camera-based FLASH-luminometer built by Amgen, Inc. The following agonists were used to activate TRP channels: 0.5 uM capsaicin for TRPV1, 80 uM allyl isothiocyanate (AITC) for TRPA1, 1 uM icilin or cold buffer (12 °C) for TRPM8, 200 uM aminoethoxydiphenyl borate (2-APB) for TRPV3, and 1 uM 4α-phorbol 12,13-didecanoate (4α-PDD) for TRPV4. Antagonist IC50 values were calculated using GraphPad Prism 4.01 (GraphPad Software Inc, San Diego, CA)."}, "[5]": {"assay": "Plasma protein binding by ultracentrifugation", "assay_type": "in vitro ADME", "settings": "male, rat plasma", "experimental": "The unbound fraction in plasma was determined by ultracentrifugation."}, "[6]": {"molecular_target": "T2, rat TRPV3 (Rattus norvegicus, UniProt Q4QYD9)", "T2 construct": "expressed in transfected cells; host or cells: CHO, T-REx tetracycline-inducible system (Invitrogen), co-transfected with aequorin", "T2 sequence (Q4QYD9 1-791)": "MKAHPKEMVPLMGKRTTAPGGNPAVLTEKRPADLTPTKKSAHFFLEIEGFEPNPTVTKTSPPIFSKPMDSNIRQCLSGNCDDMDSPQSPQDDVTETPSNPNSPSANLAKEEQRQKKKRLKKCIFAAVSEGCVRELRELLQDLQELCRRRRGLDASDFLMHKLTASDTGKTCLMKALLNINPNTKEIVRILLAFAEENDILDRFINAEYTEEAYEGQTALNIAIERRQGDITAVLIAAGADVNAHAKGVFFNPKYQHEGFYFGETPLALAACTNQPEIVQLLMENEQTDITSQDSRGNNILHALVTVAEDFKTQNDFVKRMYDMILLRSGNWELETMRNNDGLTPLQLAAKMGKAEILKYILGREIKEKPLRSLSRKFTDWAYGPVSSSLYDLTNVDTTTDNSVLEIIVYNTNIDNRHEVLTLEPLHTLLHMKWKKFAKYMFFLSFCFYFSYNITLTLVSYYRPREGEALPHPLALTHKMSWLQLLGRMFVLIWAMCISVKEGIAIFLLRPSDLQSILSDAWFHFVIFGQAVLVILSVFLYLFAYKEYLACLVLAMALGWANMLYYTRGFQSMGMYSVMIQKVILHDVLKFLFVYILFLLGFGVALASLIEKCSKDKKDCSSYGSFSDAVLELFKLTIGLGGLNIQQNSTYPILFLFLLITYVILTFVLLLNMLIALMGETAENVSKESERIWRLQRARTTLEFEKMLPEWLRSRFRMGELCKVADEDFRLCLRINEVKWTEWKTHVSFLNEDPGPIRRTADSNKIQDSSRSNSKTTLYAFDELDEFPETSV", "assay": "Luminescence (aequorin) readout of intracellular calcium, CHO cells expressing rat TRPV3, 2-APB activation", "assay_type": "cell-based", "settings": "200 uM 2-APB, read-out: rTRPV3 IC50", "text": "as §1"}},
  "data": [
    {"smiles": "C[C@H](NC(=O)N1CCc2cccnc2[C@H]1c1ccc(C(F)(F)F)cc1)C(F)(F)F", "note": "[AMG2850, (R)-8-(4-(trifluoromethyl)phenyl)-N-((S)-1,1,1-trifluoropropan-2-yl)-5,6-dihydro-1,7-naphthyridine-7(8H)-carboxamide]", "values": [
      {"measurement": "total distance traveled, open field", "setting": "[1]", "value": "13,640 ± 623 cm"},
      {"measurement": "Oral bioavailability", "setting": "[2]; 5 mg/kg oral gavage", "value": 47, "unit": "%"},
      {"measurement": "clearance", "setting": "[2]; plasma, iv, i.v. 2 mg/kg", "value": 7.83, "unit": "mL/min/kg"},
      {"measurement": "bioavailability", "setting": "[2]; plasma, 5 mg/kg oral gavage", "value": "> 40", "unit": "%"},
      {"measurement": "prevention of icilin-induced WDS", "setting": "[3]; 10 mg/kg p.o., 90 min before icilin 0.5 mg/kg i.p.", "value": "Full prevention"},
      {"measurement": "IC90", "setting": "[3]; Rattus norvegicus, ip, unbound plasma concentration, icilin 0.5 mg/kg i.p., read-out: Rat PD IC90 (unbound mean in vivo IC90, WDS model)", "value": 0.099, "unit": "µM"},
      {"measurement": "ED50", "setting": "[3]; Rattus norvegicus, p.o., icilin 0.5 mg/kg i.p., read-out: Rat PD ED50", "value": 1.8, "unit": "mg/kg"},
      {"measurement": "IC50", "setting": "[4]", "value": "> 25", "unit": "µM"},
      {"measurement": "fraction unbound at 15 min, 5 ug/mL", "setting": "[5]", "value": 0.119},
      {"measurement": "IC50", "setting": "[6]", "value": "> 25", "unit": "µM"}
    ]}
  ]
}
